# Measurements taken from US20050054629A1, “Compounds and methods of treating cell proliferative diseases” (priority 2002, published 2005).
# pIC50: −log10 of the molar value. Where two headings read alike, the source gives them in different places.
# Columns and labels:
# MDA-MB-231 cells [1] = test: Migration assay (Boyden chamber, non-coated filters); format: cell-based, human; conditions: MDA-MB-231, Boyden chamber
# Experimental: (§1) One day after seeding, 10^6 MDA-MB-231 cells were treated overnight with different concentrations of compounds (1, 10, 17.5, 25 and 50 μM). Cells were collected with Versene (Invitrogen), counted with trypan blue exclusion, rinsed twice in serum-free medium containing 0.1% BSA and resuspended in serum-free medium containing 0.1% BSA plus the appropriate concentration of compound. 10^5 treated cells were placed in the upper chamber. Medium containing 10% of FBS plus the appropriate concentration of compound was placed in the lower chamber as a chemoattractant. The Boyden chamber was incubated 6 hours at 37° C. before the cells were fixed and stained with Diff-Quick (Dade-Berhing). Cells on the upper part of the filters were removed using a cotton swab. Cells on the underside of the filters were visualised and counted under light microscope.
# The migration assay was performed the same way, using non-coated filters.
# [2] = tested on: HCT116 colon adenocarcinoma; test: Cytotoxicity assay (MTT), 6 days; format: cell-based, human; conditions: 6 days of treatment, read-out: Toxicity 6d (IC 50, μM) HCT116
# Excerpt: (§2) Four human tumoral cell lines, namely HCT116 colon adenocarcinoma, H460 lung carcinoma, MCF-7 and MDA-MB-231 breast carcinoma cell lines, and three immortalized but non tumorigenic cell lines, namely NIH3T3 mouse fibroblasts and human breast-derived MCF10-A and MRC-5 were purchased at ATCC and cultured according to their recommendations. In order to determine the cytotoxicity associated with one compound, a microculture tetrazolium assay (MTT), as described by Carmichael et al (Cancer Res, 1996) with modifications, was used. Briefly, 5.10^3 or 2.10^4 cells were seeded per well in 24-well plates 24 hours before drug addition. Cells were treated with 0, 1, 10, 17.5, 25 and 50 μM of compound solubilized in DMSO, adjusting the total volume of DMSO (Dimethylsulfoxide) to 1%. Forty-eight hours or 6 days after treatment, the medium was replaced by PBS containing 0.5 mg/ml MTT (Sigma) and cells were incubated for 3 more hours at 37° C. before solubilization of formazan crystals in 100% DMSO. Absorbance was measured using a spectrophotometer at a wavelength of 550 nm. Cell surviving fraction and 50% inhibitory concentration were calculated. All assays were performed in triplicate.
# MDA-MB-231 cells [3] = test: Matrigel invasion assay (Boyden chamber); format: cell-based, human; conditions: MDA-MB-231, Boyden chamber, matrigel
# Experimental: Chemoinvasion assay was performed in Boyden chamber as described by Albini et al (Cancer Res, 1987) with some modifications. Polycarbonate membranes with 8 μm pores were coated with matrigel (125 μg/cm^2) at room temperature for 48 h. Two hours before experiments, the matrix was […] with serum-free medium containing 0.1% BSA.
# as §1
# NIH3T3 cells = test: Colony formation assay with constitutively activated Ras (RasV12) and Rac (RacV12); format: cell-based, mouse; set-up: key to Colony formation: −: no effect of the compound was observed; +: an effect of the compound was observed
# Experimental: (§3) The impact of the compounds on Ras and Rac signaling pathways was analysed with two reporter systems described by Imler (Nature 1988) and Lin (Science, 1995) respectively on one hand, and by a colony formation assay in the presence of constitutively activated Ras (RasV12) and Rac (RacV12) on the other hand. For this latter experiment, fifty percent confluent NIH3T3 cells in a 10 cm diameter petri dish were transfected with 0.5 μg pSV2-RasV12 or 0.5 μg pEXV RacV12 plasmids plus 100 ng of pSV2-neomycin plasmid using Lipofectamine-Plus reagent (Invitrogen) according to the manufacturer's instructions. Forty-eight hours later, cells were trypsinised, splitted to ⅓, and incubated in the presence of complete medium supplemented with 400 μg/ml geneticin (Invitrogen) and different doses of compound (1, 10, 17.5, 25 and 50 μM) until emerging resistant clones appear (2-3 weeks). The medium was renewed every 3 days. Colonies with a minimum of 50 cells were counted after staining with Fuschin 2%.
# MRC-5 = test: Cytotoxicity assay (MTT), 6 days; format: cell-based; conditions: Homo sapiens, MRC5, 144 h, 6 days of treatment, read-out: Toxicity 6d (IC 50, μM) MRC-5
# Excerpt: as §2
# [4] = tested on: MDA-MB-231 breast carcinoma; test: Cytotoxicity assay (MTT), 6 days; format: cell-based; conditions: Homo sapiens, MDA-MB-231, 144 h, 6 days of treatment, read-out: Toxicity 6d (IC 50, μM) MDA231
# Excerpt: as §2
# MCF10-A = test: Cytotoxicity assay (MTT), 6 days; format: cell-based; conditions: Homo sapiens, MCF-10A, 144 h, 6 days of treatment, read-out: Toxicity 6d (IC 50, μM) MCF10-A
# Excerpt: as §2
# H460 lung carcinoma = test: Cytotoxicity assay (MTT), 6 days; format: cell-based; conditions: Homo sapiens, NCI-H460, 144 h, 6 days of treatment, read-out: Toxicity 6d (IC 50, μM) H460
# Excerpt: as §2
# MCF-7 breast carcinoma = test: Cytotoxicity assay (MTT), 6 days; format: cell-based; conditions: Homo sapiens, MCF7, 144 h, 6 days of treatment, read-out: Toxicity 6d (IC 50, μM) MCF7
# Excerpt: as §2
# NIH3T3 mouse fibroblasts = test: Cytotoxicity assay (MTT), 6 days; format: cell-based; conditions: NIH3T3, 144 h, 6 days of treatment, read-out: Toxicity 6d (IC 50, μM) NIH3T3
# Excerpt: as §2
# cell architecture = test: Cell architecture modification, phase contrast; format: cell-based; set-up: key: −: no effect of the compound was observed; +: an effect of the compound was observed
# NIH3T3 = test: Cytoskeleton analysis, actin staining (FITC-phalloidin); format: cell-based, mouse
# Experimental: Since major rearrangements of cytoskeleton are observed in tumor cells and since the small GTPases are known to regulate these events, analysis of actin cytoskeleton was performed. Subconfluent cells seeded onto coverslips were treated with different concentration of compound (1, 10, 17.5, 25 and 50 μM) or vehicle for 24 h, before being fixed in 4% formaldehyde for 15 min., permeabilized in 0.2% Triton X100 for 5 minutes and incubated in PowerBlock (Biogenex) for 10 min. Actin filaments were stained with 0.5 μg/ml fluorescein isothiocyanate (FITC)-labelled phalloidin for 1 hour. Analysis was performed using an inverted fluorescent microscope.
# Ras = test: Ras-dependant signaling pathway analysis (reporter system); format: cell-based; set-up: key: −: no effect of the compound was observed; +: an effect of the compound was observed
# Experimental: as §3
# HCT116 cells = test: Anchorage-independent growth assay (soft agar / Matrigel); format: cell-based, human; conditions: Homo sapiens, HCT-116, 168 h; HCT116, 3-dimensional growth, 1 week
# Experimental: In order to evaluate the effect of the compounds on the capacity of tumor cells to grow without anchorage, HCT116 cells were seeded either in agar or in Matrigel (BD, France). For 3D growth experiment in soft agar in 24-well plates, 5.10^3 HCT116 cells were resuspended in 250 μl of complete medium containing 0.3% soft-agar (Difco) and different concentrations of compound (0.1, 1, 10, 17.5, 25 and 50 μM). Cells were then poured on a solidified layer of medium containing 0.5% of soft-agar plus the compound at the same concentration than in the upper layer. Cells were incubated at 37° C. for 1 week before they were analysed using a phase contrast microscope (Nikon). For 3D growth experiment in Matrigel, 10^4 HCT116 cells were resuspended in 300 μl of complete medium containing 5 mg/ml Matrigel (BD, France) and different concentrations of compound (0.1, 1, 10, 17.5, 25 and 50 μM), and poured in 24-well plates. After solidification at 37° C. for 15 min., complete medium containing the compound was added to each well. Cells were incubated for 1 week before they were collected using Matrisperse (BD, France) according to the manufacturer's instructions. After recovery, alive cells were counted with trypan blue exclusion.
# HCT116 = test: Cell viability assay (MTT), Example 32; format: cell-based, human; conditions: for pIC50: Homo sapiens, HCT-116, 144 h, day 6, 10% FBS
# Experimental: FIG. 7: Antiproliferative effect of compounds on HCT116 (top) and MDA-MB-231 (bottom) cell lines measured by MTT viability assay. 2.5 10^3 (HCT116) or 7.5 10^3 (MDA-MB-231) cells were seeded in 48-well plates in growth medium containing 10% FBS, with or without various concentrations of test compounds. Cell cultures were fed every 3 days with the appropriate media. Cell viability was determined on day 6. Data were analyzed and IC50s were calculated from the dose-response curves using GraphPad Prism.
# In order to determine one compound effect on cell viability, microculture tetrazolium assay (MTT) was performed as described by Carmichael et al., (1996) with modifications. Four human tumoral cell lines, namely HCT116 colon adenocarcinoma, H460 lung carcinoma, MCF-7 and MDA-MB-231 breast carcinoma cell lines, and 3 immortalized but non tumorigenic cell lines, namely NIH3T3 mouse fibroblasts and human breast-derived MCF10-A and human lung-derived MRC-5 were purchased at ATCC and cultured according to their recommendations. Briefly, 2.5 10^3 to 2 10^4 cells per well were seeded in 48-well plates 24 hours before drug addition. Cells were treated with 0 to 200 μM (11 concentrations) of compound solubilized in DMSO, adjusting the final concentration of DMSO to 1% in the well. Six days after treatment, the medium was replaced by PBS containing 0.5 mg/ml MTT (Sigma) and cells were incubated for 1-3 hours at 37° C. before solubilization of formazan crystals in 100% DMSO. Absorbance was measured using a spectrophotometer at a wavelength of 550 nm. Data was analyzed using the GraphPad Prism software (GraphPad Software, Inc., San Diego, USA), and IC50 (dose leading to 50% cell death) was calculated from the dose-response curves.
SMILES,"IC50 ([2]; Homo sapiens, HCT-116, 144 h) [µM]",IC50 [4] [µM],IC50 (H460 lung carcinoma) [µM],IC50 (MCF-7 breast carcinoma) [µM],IC50 (NIH3T3 mouse fibroblasts) [µM],pIC50 (HCT116),further results
"C/C=C/c1oc(CO)cc(=O)c1OCCCCCOc1ccccc1CCC [EH9301, (E)-6-(Hydroxymethyl)-2-(propen-1-yl)-3-[5-(2-propylphenyloxy)pentyloxy]-4H-pyran-4-one]",20,25,25,20,50,,Migration (MDA-MB-231 cells [1]): no effect; Invasion (MDA-MB-231 cells [3]): No effect; Colony formation (NIH3T3 cells): −; IC50 (MRC-5): 35 µM; IC50 (MCF10-A): > 50 µM; Cell architecture modification phase contrast (cell architecture): −
"O=c1cc(CO)occ1OCCCCCOc1ccc(Cl)cc1 [EH15500, 5-[5-(4-Chlorophenyloxy)pentyloxy]-2-(hydroxymethyl)-4H-pyran-4-one]",50,15,35,> 50,,,"general morphology of NIH3T3 cells, as detected by β-actin staining (NIH3T3): affected; Cell architecture modification actin staining (R: ruffles; FC: focal complexes) NIH3T3 (NIH3T3; 24 h treatment): cell destructuration; Small GTPases activities Ras (Ras): −; Colony formation (NIH3T3 cells): −; melting point: 95 to 97 °C; Cell architecture modification phase contrast (cell architecture): +"
"C/C=C/c1oc(CO)cc(=O)c1OCCCCCOc1cccc(Cl)c1 [EH16201, (E)-3-[5-(3-Chlorophenyloxy)pentyloxy]-6-(hydroxymethyl)-2-(propen-1-yl)-4H-pyran-4-one]",50,> 50,20,25,25,,pIC50 (HCT116 cells): 4.90
"C/C=C/c1oc(CO)cc(=O)c1OCCCCCOc1ccc(Cl)cc1 [EH26101, (E)-3-[5-(4-Chlorophenyloxy)pentyloxy]-6-(hydroxymethyl)-2(propen-1-yl)-4H-pyran-4-one]",> 50,40 to 45,35,> 50,1 to 5,,pIC50 (HCT116 cells): 4.30
"O=C(NCc1ccccc1)c1cc(=O)c(OCCCCCOc2ccc(Cl)cc2)co1 [EH28900, N-Benzyl-5-[5-(4-Chlorophenyloxy)pentyloxy]-4-oxo-4H-pyran-2-carboxamide]",≤ 15,5,10,20,0.5,,Small GTPases activities Ras (Ras): −; IC50 [2]: 25 µM; IC50 (MCF10-A): 50 µM; Cell architecture modification phase contrast (cell architecture): −
C/C=C/c1oc(CO)cc(=O)c1OCCCCCOc1ccc(Cl)c(Cl)c1 [EH30101],50,30 to 35,35,45,0.1 to 0.5,,pIC50 (HCT116 cells): 5.12
"O=c1cc(CO)occ1OCCCCCn1cnc2c(Cl)ncnc21 [EHT 0248, 5-[5-(6-Chloro-purin-9-yl)-pentyloxy]-2-hydroxymethyl-4H-pyran-4-one]",,,,,,< 4.00,
"C/C=C/c1oc(CO)cc(=O)c1OCCCCCOc1ccc(Cl)cc1CCC [EHT 1405, (E)-3-[5-(4-chloro-2-propyl-phenoxy)-pentyloxy]-6-hydroxymethyl-2-propenyl-4H-pyran-4-one]",,,,,,5.40,
"O=C(NC1CCCCC1)OCc1cc(=O)c(OCCCCCn2ccc3ccccc32)co1 [EHT 6231, Cyclohexyl-carbamic acid 5-(5-indol-1-yl-pentyloxy)-4-oxo-4H-pyran-2-ylmethyl ester]",,,,,,,"IC50 fold higher as compared to compound EHT 7395 (HCT116; MTT, HCT116): 2 fold"
"O=c1cc(COC2CCCCO2)occ1OCCCCCn1ccc2ccc(Cl)cc21 (centres unmarked) [EHT 8617, 5-[5-(6-Chloro-indol-1-yl)-pentyloxy]-2-(tetrahydro-pyran-2-yloxymethyl)-4H-pyran-4-one]",,,,,,5.40 to 5.82,
"O=c1cc(CO)occ1OCCCCCN1CCc2ccccc21 [EHT 8650, 5-[5-(2,3-Dihydro-indol-1-yl)-pentyloxy]-2-hydroxymethyl-4H-pyran-4-one]",,,,,,< 4.00,
